Laboratory results published in patent publication US5846538A, “Immune reactivity to HER-2/neu protein for diagnosis and treatment of malignancies in which the her-2/neu oncogene is associated” (University of Washington, priority 1995, dated 1998).

Experiments:
[1] = target: T1, HLA-A2.1 (Homo sapiens, UniProt P04439, D140Y/D185E/D98H/E176V/E277Q/G131W/G231S/I119V/I121R/I166T/I218V/L300P/L318F/N151K/N90K/P208A/P217A/Q86G/Q94H/R138H/R169H/T345S); test: class I MHC molecule stabilization assay on T2 cells; format: cell-based; conditions: T2 cells incubated 18 hours with peptide, vs medium alone
T1 construct: T2 without exogenous peptide has low expression of HLA-A2 (30%-50%); endogenous in cells; host or cells: T2 (human T-B cell hybrid)

[2] = tested on: rat sera; test: ELISA for peptide epitope analysis of sera of immunized rats; format: in vivo; conditions: sera from rats immunized with ECD peptides
Experimental: One group of rats was immunized with a mixture of extracellular domain (ECD) peptides and one group with a mixture of intracellular domain (ICD) peptides. The final group received adjuvant alone. Peptides were administered at a final concentration of 100 μg each in a total volume of 200 μl. The animals underwent 3 immunizations each 14-16 days apart with either CFA or IFA as adjuvant (Sigma ImmunoChemicals, St. Louis, Mo.). 16 days after the third immunization sera was obtained for assessment of immune response.
96 well Immulon 4 plates (Dynatech Laboratories) were incubated overnight at 4° C. with peptides at a concentration of 10 μg/well diluted in PBS alternating with rows of PBS/1%BSA. After incubation, all wells were blocked with PBS/1%BSA, 100 μl/well for 4 hours at room temperature. The plate was washed with PBS/0.5% Tween. After washing, the plate was incubated with rat sera at the following dilutions: 1:50 and 1:100. The sera was diluted in PBS/1%BSA/1% FBS/25 μg/ml mouse IgG/0.01% NaN3 and then serially into PBS/1%BSA. […] Color reaction was read at an optical density of 640 nm until the reading on the most reactive well reached 0.3 OD. The reaction was stopped with 1N HCl and the optical density was read at 450 nm. The OD of each serum dilution was calculated as the OD of the peptide coated wells minus the OD of the PBS/1%BSA coated wells. […]

[3] = tested on: peripheral blood mononuclear cells (PBMC); test: standard proliferation assay of PBMC (3H-thymidine), CD4+ T cell response; format: cell-based, human
[4] = tested on: PBL; test: low frequency event screening assay for CD4+ T cell precursors in PBL of normal individuals; format: cell-based, human
[5] = breast cancer patient A, HER-2/neu status Negative, tetanus toxoid 5 μg/ml, p185 5 μg/ml, peptides 50 μg/ml, 4 days
[6] = breast cancer patient B, HER-2/neu status Positive, tetanus toxoid 5 μg/ml, p185 5 μg/ml, peptides 50 μg/ml, 4 days
[7] = breast cancer patient C, HER-2/neu status Positive, tetanus toxoid 5 μg/ml, p185 5 μg/ml, peptides 50 μg/ml, 4 days
[8] = breast cancer patient D, HER-2/neu status Positive, tetanus toxoid 5 μg/ml, p185 5 μg/ml, peptides 50 μg/ml, 4 days

Row | Molecule | % Increase of class I stabilization on T2 [1] [%] | antibody responses to individual peptides [2] | Stimulation Index (S.I.) [3, 5] | Stimulation Index (S.I.) [3, 6] | Stimulation Index (S.I.) [3, 7] | Stimulation Index (S.I.) [3, 8] | Stimulation Index (S.I.) ([3]; normal individual 1) | Stimulation Index (S.I.) ([3]; normal individual 2) | Stimulation Index (S.I.) ([3]; normal individual 3) | Stimulation Index (S.I.) ([3]; normal individual 4) | Stimulation Index (S.I.) ([3]; normal individual 5) | CD4+ T cell response in low frequency screening ([4]; one normal individual (FIG. 2)) | individuals with a proliferative response ([4]; seven normal subjects (4 males, 3 females)) [%]
1 | CC(C)C[C@H](NC(=O)[C@@H](N)Cc1c[nH]cn1)C(=O)N[C@@H](Cc1ccc(O)cc1)C(=O)N[C@@H](CCC(N)=O)C(=O)NCC(=O)N[C@@H](CS)C(=O)N[C@@H](CCC(N)=O)C(=O)N[C@H](C(=O)N[C@H](C(=O)O)C(C)C)C(C)C [p48-56] | 20 |  |  |  |  |  |  |  |  |  |  |  | 
2 | CC(C)C[C@H](NC(=O)[C@H](CCC(N)=O)NC(=O)[C@@H](NC(=O)[C@@H](NC(=O)[C@H](CO)NC(=O)[C@@H](NC(=O)[C@H](CC(C)C)NC(=O)[C@@H](N)CS)[C@@H](C)O)[C@@H](C)O)C(C)C)C(=O)N[C@H](C(=O)O)C(C)C [p789-797] | 20 |  |  |  |  |  |  |  |  |  |  |  | 
3 | TQRCEKCSKPCARVCYGL [p328-345] |  | substantial responses |  |  |  |  |  |  |  |  |  |  | 
4 | Tetanus Toxoid [reference compound] |  |  | 52 | 36 | 7 | 10 | 6 | 7 | 7 | 10 | 11 |  | 
5 | p185: protein product of the HER-2/neu oncogene, partially purified whole protein from SKBR3 cell membranes |  |  | 13 | < 2 | 4 | 4 | 2 | < 2 | < 2 | 2 | 2 | Positive responses | 57
